# In the supplement of paper PMC8960247:
# Where a name gives a salt, the structure may show the parent alone. ± gives the standard error.
# Experiments:
# [1] = system: 621-103 (TSC2-rescued); assay: relative viability vs DMSO; higher = less cytotoxic; conditions: serum: 10% FBS, 72 h
# [2] = system: 621-102 (TSC2-deficient); assay: as above; conditions: serum: 10% FBS, 72 h
# 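Also: immortalized renal angiomyolipoma cells stably carrying empty vector or TSC2, dosed in 384-well plates in DMEM, viability normalized to vehicle-treated wells within each plate.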
SMILES,relative viability ([1]; 0.0001 µM) [%],relative viability ([1]; 0.001 µM) [%],relative viability ([1]; 0.01 µM) [%],relative viability ([1]; 0.1 µM) [%],relative viability ([1]; 1 µM) [%],relative viability ([1]; 10 µM) [%],relative viability ([2]; 0.0001 µM) [%],relative viability ([2]; 0.001 µM) [%],relative viability ([2]; 0.01 µM) [%],relative viability ([2]; 0.1 µM) [%],relative viability ([2]; 1 µM) [%],relative viability ([2]; 10 µM) [%]
C=CC(=O)Nc1cccc(Oc2nc(Nc3ccc(N4CCN(C)CC4)cc3)ncc2Cl)c1 [WZ3146],103 ± 2,100.6 ± 0.42,100 ± 1.1,101 ± 1.8,79.4 ± 1.4,12.9 ± 0.067,112 ± 3.9,110 ± 3.5,106 ± 2.6,107 ± 3.3,97 ± 2.9,23.8 ± 5.1
COC(=O)[C@H](c1ccccc1Cl)N1CCc2sccc2C1 [Clopidogrel Bisulfate],109.1 ± 0.85,108 ± 4.5,111 ± 4.1,103 ± 2,104.86 ± 0.079,102.2 ± 0.55,105 ± 1.4,102 ± 1.4,108.3 ± 0.95,105 ± 1.4,105 ± 4,99.8 ± 5.3
CN(C)C1CCN(C(=O)c2ccc(NC(=O)Nc3ccc(-c4nc(N5CCOCC5)nc(N5CCOCC5)n4)cc3)cc2)CC1 [PKI-587],72.6 ± 3.4,49.4 ± 3,44.8 ± 2.2,33.8 ± 1.2,26.61 ± 0.072,19.91 ± 0.074,52.3 ± 1.3,38.71 ± 0.29,29.8 ± 0.13,22.16 ± 0.12,17.8 ± 0.79,13.3 ± 0.47
CCc1c2c(nc3ccc(OC(=O)N4CCC(N5CCCCC5)CC4)cc13)-c1cc3c(c(=O)n1C2)COC(=O)[C@]3(O)CC [Irinotecan],104 ± 4.3,98.62 ± 0.9,103 ± 1.1,99.19 ± 0.57,84.6 ± 1.1,30.2 ± 0.71,105 ± 1.2,106 ± 3.8,93.9 ± 2.1,108 ± 2.8,82 ± 0.64,33.7 ± 0.69
O=C(NOCC(O)CO)c1cc(Br)c(F)c(F)c1Nc1ccc(I)cc1F (stereo not drawn),96.8 ± 0.31,95 ± 3,98.9 ± 1.2,93.54 ± 0.87,93.44 ± 0.33,74.3 ± 5.1,105 ± 4.9,99.7 ± 2.8,105.5 ± 0.56,106 ± 1.1,100 ± 1.4,93.7 ± 1.3
C[C@H](N[C@@H](CCc1ccccc1)C(=O)O)C(=O)N1CCC[C@H]1C(=O)O [Enalaprilat],101 ± 4,101.1 ± 0.31,95.29 ± 0.25,98.36 ± 0.18,101 ± 2.5,96.34 ± 0.17,97.6 ± 3.3,100 ± 4.3,96.26 ± 0.64,98.48 ± 0.16,95.91 ± 0.29,101.3 ± 0.23
CN(C)C(=O)Oc1cccc([N+](C)(C)C)c1 [Neostigmine bromide (Prostigmin)],92.6 ± 3.7,93.3 ± 2.9,93.6 ± 1.3,95.7 ± 2.7,93.8 ± 2.1,92.44 ± 0.58,103 ± 4.6,114 ± 3,104.2 ± 0.97,102 ± 7.2,102 ± 6,101.3 ± 0.82
O=C(CN1C(=O)C2(CCCC2)NC[C@H]1c1cc(F)cc(F)c1)Nc1ccc2c(c1)C[C@@]1(C2)C(=O)Nc2ncccc21 [MK 3207 hydrochloride],103 ± 1.3,103 ± 1.4,101.4 ± 0.9,101.2 ± 0.77,102 ± 2,102 ± 1.4,114 ± 1.5,114 ± 1.4,114.8 ± 0.14,113 ± 3.3,116.5 ± 0.26,104 ± 2.5
COCCCOc1cc(C[C@@H](C[C@H](N)[C@@H](O)C[C@H](C(=O)NCC(C)(C)C(N)=O)C(C)C)C(C)C)ccc1OC [Aliskiren hemifumarate],105 ± 2.6,100 ± 1.1,104 ± 6.3,94.7 ± 4.8,96.59 ± 0.53,98.8 ± 2.7,110 ± 2.6,111 ± 2.7,106 ± 5.1,112 ± 1.9,98.8 ± 5.5,95.9 ± 5.5
C[S+]([O-])c1ccc(-c2nc(-c3ccc(F)cc3)c(-c3ccncc3)[nH]2)cc1 (stereo not drawn),101.3 ± 0.64,98.42 ± 0.75,98.6 ± 1.3,99.1 ± 2,100 ± 1.8,98.1 ± 1.3,112 ± 5,108.1 ± 0.69,98.1 ± 2.8,102 ± 1.2,111 ± 2,110 ± 2.8
Cc1cnc(Nc2ccc(N3CCN(C)CC3)cc2)nc1Nc1cccc(S(=O)(=O)NC(C)(C)C)c1,102 ± 2.6,98.71 ± 0.22,95.5 ± 4.1,97.4 ± 1.1,51 ± 1.3,1.33 ± 0.2,116.1 ± 0.23,120 ± 3.8,109 ± 6.5,107 ± 2.4,80.4 ± 2.8,3.65 ± 0.42
O=C1N=C(O)NC1(c1ccccc1)c1ccccc1 [Phenytoin sodium],105 ± 2.1,105.8 ± 0.97,100 ± 2.4,101 ± 2.9,94.54 ± 0.49,101.8 ± 0.76,121 ± 4.2,90.6 ± 8.7,94.9 ± 4.7,86.6 ± 2.5,92 ± 6,100.3 ± 0.98
COc1cc2c(cc1O)CC[C@@H]1[C@@H]2CC[C@]2(C)[C@@H](O)CC[C@@H]12 [2-Methoxyestradiol],107 ± 2.6,103.2 ± 0.73,98.66 ± 0.82,98.8 ± 2,82.5 ± 3.2,53.7 ± 0.91,121 ± 1.9,118 ± 3.8,112 ± 2.2,107 ± 3.3,80 ± 2.5,39.8 ± 1.9
Cn1cc(/C=C/C(=O)c2cccc(F)c2)cc1/C=C/C(=O)NO [MC1568],99.97 ± 0.52,98 ± 1,99.34 ± 0.99,98.5 ± 1.1,100 ± 1.3,101 ± 1.5,109.3 ± 0.42,106.9 ± 0.32,103 ± 7.3,104 ± 2.1,98.5 ± 4.7,102.6 ± 0.25
CN(C)CCOC(c1ccccc1)c1ccccc1 [Diphenhydramine HCl],89.4 ± 6.2,82.9 ± 10,106.2 ± 0.96,97.3 ± 2.9,97.6 ± 1.7,99.2 ± 1.8,105 ± 6,97.7 ± 7.7,99.9 ± 7.9,110 ± 1.5,91.1 ± 2.4,101 ± 4.7
CS(=O)(=O)c1ccc(C(=O)Nc2ccc(Cl)c(-c3ccccn3)c2)c(Cl)c1 [GDC-0449 (Vismodegib)],100.4 ± 1,100 ± 1.6,103 ± 1.6,102.1 ± 0.15,103.2 ± 0.18,102 ± 0.43,103 ± 2.5,111.7 ± 0.39,111.9 ± 0.39,111 ± 2.7,116.2 ± 0.59,104 ± 1.8
CC[C@H](Nc1ncnc2[nH]cnc12)c1nc2cccc(F)c2c(=O)n1-c1ccccc1 [CAL-101],116 ± 3.1,109 ± 3.1,114 ± 1.2,104 ± 3.4,109 ± 2,92.7 ± 4.7,104.38 ± 0.033,117.5 ± 0.72,111 ± 5.8,106 ± 3,104.1 ± 0.72,92.41 ± 0.24
Cc1cccc(-c2nn3c(c2-c2ccnc4ccc(C(N)=O)cc24)CCC3)n1,102.4 ± 0.59,93.4 ± 3.5,97.8 ± 2.9,97.7 ± 2.5,99.2 ± 0.91,106 ± 1.6,97.6 ± 7.5,87.2 ± 2,95.57 ± 0.43,109 ± 5.5,96 ± 2.2,93.9 ± 4.6
CNC(=O)c1cc(Oc2ccc(NC(=O)Nc3ccc(Cl)c(C(F)(F)F)c3)c(F)c2)ccn1 [BAY 73-4506 (Regorafenib)],98.01 ± 0.19,99.11 ± 0.79,99.9 ± 2.3,102 ± 1.6,100 ± 1.8,63.55 ± 0.47,109 ± 1.5,93.9 ± 5.3,99.5 ± 0.71,98.4 ± 2.8,102 ± 1.4,88.2 ± 1.8
